In US20190298708A1, “METHODS OF TREATING SUBJECTS WITH AN ELEVATED NEUROFILAMENT LIGHT CHAIN LEVEL” (Coherus Biosciences, Inc., priority 2018, published 2019):

Columns and labels:
[1] = tested on: relapsing-remitting multiple sclerosis (RRMS) patients; assay: Correlation of NFL concentration with CE and T2 lesions and EDSS; type: in vivo, human; details: after six months of treatment, all groups combined
Source text: Serum Nfl levels were investigated in longitudinal blood samples. The aims of this study include: • to explore the predictive value of blood NFL concentrations in patients treated with CHS-131 (also known as INT-131), • to determine the kinetics of the response to CHS-131, • to analyze NFL as a marker for the effectiveness of CHS-131 in relapsing-remitting multiple sclerosis (RRMS) patients, • to assess the value of NFL concentrations in comparing the effectiveness of CHS-131 with the effectiveness of placebo, • to correlate blood NFL with radiological and clinical outcome parameters (such as magnetic resonance imaging (MRI) (Gd+ lesion counts, T2 lesion volume), annualized relapse rate (ARR), brain atrophy and correlation with expanded disability status scale (EDSS), • to examine the prognostic value of NFL concentrations by stratification of patients related to disease activity, • to determine the risk of relapse or risk of disease progression, and • to evaluate NFL concentrations as a retreatment predictive biomarker. The correlation between NFL concentration and CE and T2 lesions was evaluated after six months of treatment with CHS-131 (all groups combined). […] The correlation between NFL concentration and EDSS was evaluated after six months of treatment with CHS-131 (all groups combined). […] Increased EDSS indicates increased disability, therefore lowering EDSS is considered effective treatment of multiple sclerosis.

[2] = tested on: neurofilament light chain (NFL); assay: Blood NFL measurement by Simoa assay in RRMS patients given CHS-131; type: in vivo, human
Method: Capture monoclonal antibody (mAB) 47: 3 is buffer exchanged and diluted to 0.3 mg/mL 4×10^6 paramagnetic beads (Quanterix Corporation) are buffer exchanged and activated using 0.5 mg/mL 1-ethyl-3-(3-dimetylaminopropyl) carbodiimide (Quanterix), followed by a 30-minute incubation at room temperature (HulaMixer, Thermo Fischer Scientific). The diluted capture mAB 47:3 is conjugated with the washed and activated paramagnetic beads for a 2-hour incubation at room temperature on a mixer. After the incubation, the beads are washed three times using a magnetic separator and blocked. Next, the conjugated beads are suspended and stored at 4° C.
The Simoa assay is run on a Simoa HD-1 instrument (Quanterix) using a two-step Assay Neat 20 protocol. Briefly, 100 μL of calibrator/sample in Tris-buffered saline (TBS), 0.1% Tween 20, 1% milk powder, 400 μg/mL Heteroblock (Omega Biologicals), 25 μL conjugated beads in TBS, 0.1% Tween 20, 1% milk powder, 300 μg/mL Heteroblock, and 20 μL of mAB 2:1 (0.1 μg/mL in TBS, 0.1% Tween 20, 1% milk powder, 300 μg/mL Heteroblock) are incubated for 35 minutes 15 seconds (47 cadences with 1 cadence is 45 seconds). Next, the mixture is washed. Then, 100 μL of streptavidin-conjugated […] (150 pM; Quanterix) is added, followed by a 5 minutes 15 second (7-cadence) incubation and wash. The mixture will then be placed on a Simoa HD-1 instrument. Prior to reading, 25 μL Resorufin (3-D-galactopyranoside (Quanterix) is added. The calibrator curve is constructed using the standard from the NFL ELISA (NF-light, UmanDiagnostics). Samples and calibrators are measured in duplicates.
Serum Nfl levels were investigated in longitudinal blood samples. The aims of this study include: • to explore the predictive value of blood NFL concentrations in patients treated with CHS-131 (also known as INT-131), • to determine the kinetics of the response to CHS-131, • to analyze NFL as a marker for the effectiveness of CHS-131 in relapsing-remitting multiple sclerosis (RRMS) patients, • to assess the value of NFL concentrations in comparing the effectiveness of CHS-131 with the effectiveness of placebo, • to correlate blood NFL with radiological and clinical outcome parameters (such as magnetic resonance imaging (MRI) (Gd+ lesion counts, T2 lesion volume), annualized relapse rate (ARR), brain atrophy and correlation with expanded disability status scale (EDSS), • to examine the prognostic value of NFL concentrations by stratification of patients related to disease activity, • to determine the risk of relapse or risk of disease progression, and • to evaluate NFL concentrations as a retreatment predictive biomarker.
All patients receiving CHS-131 were orally adminisntered 1 mg or 3 mg CHS-131 daily. All control patients were orally administered a placebo tablet once a day. All patients enrolled in the study were treatment-naïve RRMS for <3 years.
The human plasma samples used for the analysis were coded and are not individually identifiable because neither the investigator nor any other individuals associated with the investigation or the sponsor can link the specimen to the subject from whom the specimen was collected, either directly or indirectly through coding systems.
The concentration of NFL […] in subject administered placebo, 1 mg daily CHS-131, and 3 mg daily CHS-131 are reported in Tables 1, 2, and 3, respectively.

[3] = 1 mg daily CHS-131 oral, Wk0, RRMS patients
[4] = 1 mg daily CHS-131 oral, Wk12, RRMS patients
[5] = 1 mg daily CHS-131 oral, Wk24, RRMS patients
[6] = 1 mg daily CHS-131 oral, Wk48, RRMS patients
[7] = 3 mg daily CHS-131 oral, Wk0, RRMS patients
[8] = 3 mg daily CHS-131 oral, Wk12, RRMS patients
[9] = 3 mg daily CHS-131 oral, Wk24, RRMS patients
[10] = 3 mg daily CHS-131 oral, Wk48, RRMS patients

For `O=S(=O)(Nc1cc(Cl)c(Oc2cnc3ccccc3c2)c(Cl)c1)c1ccc(Cl)cc1Cl` [CHS-131], the “new CE lesions in subjects with lower average levels of NFL” value ([1]; FIG. 1) was “fewer new CE lesions”, the “new or enlarging T2 lesions in subjects with lower average levels of NFL” value ([1]; FIG. 2) was “fewer new or enlarging T2 lesions” and the “EDSS in subjects with lower levels of NFL (trend)” value ([1]; FIG. 3) was “lower EDSS”. The concentration of NFL, Max [2, 3] was 29 pg/mL, the concentration of NFL, Mean [2, 3] was 20.8 pg/mL and the concentration of NFL, Median [2, 3] was 19.4 pg/mL. The concentration of NFL, Min [2, 3] was 13.3 pg/mL, the concentration of NFL, Q1 [2, 3] was 19.3 pg/mL and the concentration of NFL, Q3 [2, 3] was 22.8 pg/mL. For the same molecule, the concentration of NFL, Max [2, 4] was 160 pg/mL, the concentration of NFL, Mean [2, 4] was 27.6 pg/mL and the concentration of NFL, Median [2, 4] was 17.9 pg/mL. The concentration of NFL, Min [2, 4] was 2.1 pg/mL, the concentration of NFL, Q1 [2, 4] was 11.7 pg/mL and the concentration of NFL, Q3 [2, 4] was 32.2 pg/mL. For the same molecule, the concentration of NFL, Max [2, 5] was 65.5 pg/mL, the concentration of NFL, Mean [2, 5] was 22.3 pg/mL and the concentration of NFL, Median [2, 5] was 17 pg/mL. For the same molecule, the concentration of NFL, Min [2, 5] was 3.2 pg/mL, the concentration of NFL, Q1 [2, 5] was 11.8 pg/mL and the concentration of NFL, Q3 [2, 5] was 31.5 pg/mL. It also gave a concentration of NFL, Max [2, 6] of 340 pg/mL, a concentration of NFL, Mean [2, 6] of 27.6 pg/mL and a concentration of NFL, Median [2, 6] of 17.5 pg/mL. It also gave a concentration of NFL, Min [2, 6] of 2.6 pg/mL, a concentration of NFL, Q1 [2, 6] of 10.1 pg/mL and a concentration of NFL, Q3 [2, 6] of 24.2 pg/mL. The concentration of NFL, Max [2, 7] was 73.7 pg/mL, the concentration of NFL, Mean [2, 7] was 29.9 pg/mL and the concentration of NFL, Median [2, 7] was 19.6 pg/mL. For the same molecule, the concentration of NFL, Min [2, 7] was 11.7 pg/mL, the concentration of NFL, Q1 [2, 7] was 11.8 pg/mL and the concentration of NFL, Q3 [2, 7] was 48.1 pg/mL. For the same molecule, the concentration of NFL, Max [2, 8] was 117 pg/mL, the concentration of NFL, Mean [2, 8] was 23.2 pg/mL and the concentration of NFL, Median [2, 8] was 16.4 pg/mL. For the same molecule, the concentration of NFL, Min [2, 8] was 4.9 pg/mL, the concentration of NFL, Q1 [2, 8] was 12.2 pg/mL and the concentration of NFL, Q3 [2, 8] was 28.1 pg/mL. It also gave a concentration of NFL, Max [2, 9] of 74.9 pg/mL, a concentration of NFL, Mean [2, 9] of 20.4 pg/mL and a concentration of NFL, Median [2, 9] of 15.9 pg/mL. It also gave a concentration of NFL, Min [2, 9] of 5.8 pg/mL, a concentration of NFL, Q1 [2, 9] of 10.4 pg/mL and a concentration of NFL, Q3 [2, 9] of 26.6 pg/mL. It also gave a concentration of NFL, Max [2, 10] of 119 pg/mL, a concentration of NFL, Mean [2, 10] of 19.3 pg/mL and a concentration of NFL, Median [2, 10] of 14.3 pg/mL. It also gave a concentration of NFL, Min [2, 10] of 4.9 pg/mL, a concentration of NFL, Q1 [2, 10] of 9 pg/mL and a concentration of NFL, Q3 [2, 10] of 20.4 pg/mL.
